Measured values taken from patent US10487078B2, “Compositions and methods of targeting mutant K-RAS” (NantBio, Inc., priority 2015, dated 2019).
pEC50, pIC50, pKd: −log10 of the molar value. Like-named read-outs stand apart in the source and are kept apart here.

Columns and labels:
K-ras G12D = K-ras G12D (Homo sapiens, UniProt P01116, G12D); test: G-LISA Ras activation assay, 293H cells transfected with G12D mutant; format: cell-based; details: 1 hour treatment; for IC50: Table 1, G-LISA, 293H transfected, read-out: IC50 (μM) G12D; for pIC50: Table 5, IC50, 293H transfected, read-out: G-LISA (G12D)
Procedure: (§1) 293H cells were seeded in 6-wells at 0.6×10^6 cells per well and transfected next day with 5 μg of Ras wild-type, or G12C, G12D or G12V mutant DNA plasmid vector using transfection reagent Lipofectamine 3000. Next day cells were treated with 3.125-50 μM of Ras compounds for 1 hour. Wild-type transfected cells were subsequently treated with 100 ng/ml EGF for 2 minutes. Cells were washed once in ice-cold PBS, lysed in complete lysis buffer on ice, and processed by G-LISA according to Cytoskeleton protocol.
(§2) In-cell selectivity of the compounds presented herein against a specific K-ras mutant form can also be tested as shown in the following exemplary experiment. 293H cells were seeded in 6-wells and transfected next day with 5 μg of Ras wild-type, or G12C, G12D or G12V mutant DNA plasmid vector. Next day cells were treated with 3.125-50 μM of Ras compounds for 1 hour. Wild-type transfected cells were subsequently treated with 100 ng/ml EGF for 2 minutes. Cells were washed once in ice-cold PBS, lysed in complete lysis buffer on ice, and processed by G-LISA according to Cytoskeleton protocol. FIG. 1 depicts exemplary results.
as §1, with “In still further experiments, the inventors tested selected compounds in a G-LISA assay to compare IC50 values for wild-type and various mutant K-Ras (G12D, G12V) using the following general protocol: 293H” for “293H”

K-ras G12V = K-ras G12V (Homo sapiens, UniProt P01116, G12V); test: G-LISA Ras activation assay, 293H cells transfected with G12V mutant; format: cell-based; details: 1 hour treatment; for IC50: Table 1, G-LISA, 293H transfected, read-out: IC50 (μM) G12V; for pIC50: Table 5, IC50, 293H transfected, read-out: G-LISA (G12V)
Procedure: as §1, §2
as §1, with “In still further experiments, the inventors tested selected compounds in a G-LISA assay to compare IC50 values for wild-type and various mutant K-Ras (G12D, G12V) using the following general protocol: 293H” for “293H”

K-ras G12V (GTP) = K-ras G12V (GTP) (Homo sapiens, UniProt P01116, G12V); test: SPR assay (surface plasmon resonance); format: binding; details: 25° C., 8% DMSO
Procedure: Selected compounds were also tested for selective binding to wild type and mutant forms of K-ras in the active and non-active state using surface plasmon resonance, and exemplary results are shown in Table 4.
The running buffer in all surface plasmon resonance experiments was 10 mM HEPES pH 7.4, 150 mM NaCl, 0.1% (v/v) Tween-20, 1 mM MgCl2, 8% DMSO. Experiments were carried out on the SensiQ Pioneer optical biosensor. The flow rate was set at 50 μL/min and the temperature was 25° C. kRAS protein was immobilized to the Nickel-NTA charged surface of the SensiQ HisCap chip (sensiqtech.com) giving a yield of 4000 RU. Small molecules were prepared in 100% DMSO and further diluted to 8% DMSO in running buffer. The small molecules were injected using the Taylor diffusion gradient injection mode (OneStep®, see e.g., Evaluation of Taylor dispersion injections: Determining kinetic/affinity interaction constants and diffusion coefficients in label-free biosensing, John G. Quinn, Analytical Biochemistry (2011)). Buffer blanks were injected for double referencing purposes. Data processing and model fitting were performed using Qdat.

Panc1 (G12D) cells = test: 72 hr cell viability (CellTiterBlue); format: cell-based; details: GI50, 72 hr
Procedure: (§3) Viability assays were performed on exemplary compounds and Table 2 below lists exemplary results for selected compounds tested on wild type (Ishikawa) and various K-ras mutants (Panc1-G12D; Panc10.05-G12D; HCT116-G13D).
(§4) Cells are counted and seeded at 1000 cells/36 ul medium/well into 384-well microplates. Cells are returned to 37° C. CO2 incubator for 18 hr. Drug is made as 200× in DMSO and diluted into medium to 10×. To each well is added 4 ul 10× drug, and plates are returned to the incubator. Final assay DMSO concentration is 0.5%. After 72 hr, 8 ul CellTiterBlue (Promega) is added to each well. After 3 hr, fluorescence (Ex550/Em590) is determined on the Victor Plate Reader (Perkin Elmer). Assay range is determined by DMSO control (100% viability) and 100 uM tamoxifen (0% viability). GI50 values are calculated using Graphpad Prism.

[1] = tested on: Ishikawa (K-Ras wild-type) cells; test: 72 hr cell viability (CellTiterBlue); format: cell-based; details: GI50, 72 hr
Procedure: as §3, §4

K-Ras wild-type = K-Ras wild-type (Homo sapiens, UniProt P01116); test: G-LISA Ras activation assay, 293H cells transfected with Ras wild-type, EGF-stimulated; format: cell-based; details: 1 hour treatment, 100 ng/ml EGF; for IC50: Table 1, G-LISA, 293H transfected, read-out: IC50 (μM) Wild-type; for pIC50: Table 5, IC50, 293H transfected, read-out: G-LISA (wild type)
Procedure: as §1, §2
as §1, with “In still further experiments, the inventors tested selected compounds in a G-LISA assay to compare IC50 values for wild-type and various mutant K-Ras (G12D, G12V) using the following general protocol: 293H” for “293H”

[2] = tested on: Erk phosphorylation in Panc1 (G12D) cells; test: In-Cell Western Erk phosphorylation; format: cell-based; details: EC50, one hour treatment; read-out: In-Cell Western Erk phosporylation Panc1 (G12D)
Procedure: (§5) In-cell phosphorylation assays for Erk and Akt were performed on various of the compounds and exemplary results are shown in Table 3 below using […] and Panc10.05 cell lines for G12D K-ras mutants.
(§6) Cells are seeded in complete medium into black sided, clear-bottom 384-well microplates at 3000 cells/[…]/well. Plates are returned to 37° C. CO2 incubator for 18 hr. Drug is made as 200× in DMSO and diluted into medium to 10×. To each well is added 4 ul 10× test article or controls, and plates are returned to the incubator. Final assay DMSO concentration is 0.5%. After one hour, cells are fixed in formaldehyde, rinsed & permeabilized with triton X-100, and blocked with BSA/Goat serum blocking solution. Primary phospho-Akt and phospho-ERK antibodies are added and plates are incubated overnight at 4° C. Plates are rinsed with Tween-20 wash buffer and secondary antibody (Goat anti-rabbit, Thermofisher) is added. After 2 hours, plates are rinsed in Tween-20 wash buffer, and then PBS. Plates are imaged on the Celigo (Nexcelom) and cellular fluorescence is quantitated. Full inhibition of phospho-Akt is achieved with 1 uM BEZ235 (Sellekchem), while full inhibition of phospho-ERK is achieved with 1 uM MEK Inhibitor II Calbiochem). EC50 values are calculated using Graphpad Prism.

[3] = tested on: Erk phosphorylation in Panc10.05 (G12D) cells; test: In-Cell Western Erk phosphorylation; format: cell-based; details: EC50, one hour treatment; read-out: In-Cell Western Erk phosporylation Panc10.05 (G12D)
Procedure: as §5, §6

[4] = tested on: Akt phosphorylation in Panc1 (G12D) cells; test: In-Cell Western Akt phosphorylation; format: cell-based; details: EC50, one hour treatment; read-out: In-Cell Western Akt phosporylation Panc1 (G12D)
Procedure: as §5, §6

[5] = tested on: Akt phosphorylation in Panc10.05 (G12D) cells; test: In-Cell Western Akt phosphorylation; format: cell-based; details: EC50, one hour treatment; read-out: In-Cell Western Akt phosporylation Panc10.05 (G12D)
Procedure: as §5, §6

| IC50 (K-ras G12D) [µM] | pIC50 (K-ras G12D) | Structure (SMILES) | IC50 (K-ras G12V) [µM] | pIC50 (K-ras G12V) | also measured |
| --- | --- | --- | --- | --- | --- |
| > 25 | < 4.60 | O=C1CCc2cc(-c3csc(NC(=O)c4ncccn4)n3)ccc2N1 [Compound 4826] |  |  |  |
| > 25 | 4.57 | Cc1nc(C)c(C(=O)Nc2nc(-c3ccc4c(c3)CCC(=O)N4)c(C)s2)s1 [Compound 4802] | 17 | 4.77 |  |
| > 25 | 4.44 | Cc1nc(C)c(C(=O)Nc2nc(-c3cc4c5c(c3)CCN5C(=O)CC4)cs2)s1 [Compound 4749] |  |  | pKd (K-ras G12V (GTP)): 5.22; SPR Assay G12V (GTP) Rmax (K-ras G12V (GTP)): Rmax = 75.9 ± 0.1 |
| > 25 | < 4.60 | Cc1nc(C)c(C(=O)Nc2nc(-c3ccc4c(c3)CCC(=O)N4)cs2)s1 [Compound 4662] |  |  |  |
| > 25 | < 4.60 | O=C1CCc2cc(-c3csc(NC(=O)c4ccccc4)n3)ccc2N1 [Compound 4825] |  |  |  |
| > 25 | 4.15 | CCc1sc(NC(=O)c2sc(C)nc2C)nc1-c1ccc2c(c1)CCC(=O)N2 [Compound 4803] |  |  |  |
| 12 | 4.92 | O=C1CCc2cc(-c3csc(NC(=O)c4cnc(C5CC5)s4)n3)ccc2N1 [Compound 4683] |  |  |  |
| > 25 | < 4.60 | Cc1nc(C(=O)Nc2nc(-c3ccc4c(c3)CCC(=O)N4)cs2)sc1C [Compound 4828] |  |  |  |
| 21 | 4.68 | Cc1nc(C)c(C(=O)Nc2nc(-c3ccc4c(c3)CNC(=O)N4)cs2)s1 [Compound 4748] |  |  |  |
| 15 | < 4.60 | CC(=O)Nc1ccc(-c2csc(NC(=O)c3sc(C)nc3C)n2)cc1 [Compound 4663] | 32 | 4.49 | IC50 (K-Ras wild-type): 7 µM; pIC50 (K-Ras wild-type): 5.15; SPR Assay G12V (GTP) Kd (K-ras G12V (GTP)): No binding/fit |

| Structure (SMILES) | IC50 (K-ras G12D) [µM] | pIC50 (K-ras G12D) | IC50 (K-ras G12V) [µM] | pIC50 (K-ras G12V) | also measured |
| --- | --- | --- | --- | --- | --- |
| Cc1nc(C2CC2)sc1C(=O)Nc1nc(-c2ccc3c(c2)CCC(=O)N3)cs1 [Compound 4877] | 6 | 5.22 | 9 | 5.05 | pIC50 (Panc1 (G12D) cells): 5.30; pIC50 [1]: 5.92; IC50 (K-Ras wild-type): 16 µM; pIC50 (K-Ras wild-type): 4.80; pEC50 [2]: 5.52; pEC50 [3]: 5.52; pEC50 [4]: 5.15; pEC50 [5]: 4.77 |
| Cc1nc(-c2ccccc2)sc1C(=O)Nc1nc(-c2ccc3c(c2)CCC(=O)N3)cs1 [Compound 4878] | 19 | 4.72 | > 25 | < 4.60 | pIC50 (Panc1 (G12D) cells): 5.15; pIC50 [1]: 5.30; pEC50 [2]: 4.72; pEC50 [3]: 4.89; pEC50 [4]: 4.59; pEC50 [5]: < 4.60 |
| Cc1ccccc1C(=O)Nc1nc(-c2ccc3c(c2)CCC(=O)N3)cs1 [Compound 4874] | 16 | 4.80 |  |  | pIC50 (Panc1 (G12D) cells): 4.92; pIC50 [1]: 5.52; pEC50 [2]: < 4.60; pEC50 [3]: 4.85; pEC50 [4]: 4.60; pEC50 [5]: < 4.60 |
